Experimental data taken from patent publication US20250017905A1, “COMPOSITION FOR INHIBITING HISTAMINE-N-METHYLTRANSFERASE” (SUNTORY HOLDINGS LIMITED, priority 2021, published 2025).

Target: T1, recombinant human histamine-N-methyltransferase (HNMT) (Homo sapiens, UniProt P50135)
T1 construct: host or cells: Escherichia coli
Assay: Evaluation of histamine-N-methyltransferase inhibitory activity (Eurofins Panlabs, [3H]N-methylhistamine formation)
Format: biochemical
Method: The study was commissioned to Eurofins Panlabs. The study was performed using recombinant human histamine-N-methyltransferase (HNMT) expressed in Escherichia coli. First, HNMT (0.025 μg/mL) was incubated with L-ergothioneine (L-ergothioneine concentration: 10 μM, 30 μM, 100 μM, 300 μM, or 1000 μM) in a phosphate buffer (pH 7.8) at 37° C. for 15 minutes. Next, 20 μM histamine, 1.4 μM S-(5′-adenosyl)-L-methionine, and 0.014 μM S-adenosyl-L-[methyl-3H]methionine were added to initiate an enzymatic reaction. After incubating at 37° C. for 30 minutes, 2.5 M borate was added to terminate the reaction. Lastly, the enzyme inhibitory activity of L-ergothioneine was evaluated using the amount of [3H]N-methylhistamine formed in the reaction as an index.
The concentration (μM) on the horizontal axis is the L-ergothioneine concentration.

T1 sequence (P50135 whole entry): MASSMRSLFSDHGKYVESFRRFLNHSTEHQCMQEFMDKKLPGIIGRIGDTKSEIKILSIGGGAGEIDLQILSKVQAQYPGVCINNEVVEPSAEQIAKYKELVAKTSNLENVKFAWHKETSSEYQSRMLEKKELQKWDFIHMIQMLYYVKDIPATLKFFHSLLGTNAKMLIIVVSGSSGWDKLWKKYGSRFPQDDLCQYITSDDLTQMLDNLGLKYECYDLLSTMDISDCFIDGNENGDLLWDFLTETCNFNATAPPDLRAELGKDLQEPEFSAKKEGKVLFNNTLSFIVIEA

C[N+](C)(C)[C@@H](Cc1c[nH]c(=S)[nH]1)C(=O)[O-] [L-ergothioneine]
histamine-N-methyltransferase inhibition (FIG. 1), in words (10 μM, 30 μM, 100 μM, 300 μM, or 1000 μM): concentration-dependent manner
IC50 (HNMT 0.025 μg/mL, phosphate buffer pH 7.8, 37° C., 20 μM histamine, 10-1000 μM tested, read-out: L-ergothioneine concentration (IC50) that inhibits 50% of substrate binding of histamine-N-methyltransferase): 46.2 µM
